In patent US11571418B2, “Platinum compounds that inhibit constitutive STAT3 signaling and induce cell cycle arrest and apoptosis of malignant cells” (H. LEE MOFFITT CANCER CENTER AND RESEARCH INSTITUTE, INC., priority 2011, dated 2023):

Tests used:
[1] = test system: NIH3T3/v-Ras fibroblasts; test: Soft-agar colony formation assay; assay type: cell-based, mouse; settings: treated every 2-3 days until large colonies evident
Protocol: (§1) FIG. 4. Abrogation of Stat3-dependent viral Src transformation. Viral Src-transformed fibroblasts (NIH3T3/v-Src) and their Ras-transformed counterparts (NIH3T3/v-Ras) were seeded in soft agar and growing cells were treated every 2-3 days with or without the indicated concentrations of PLATINUM-401 until large colonies were evident. Number of colonies of cells in soft agar were counted and expressed as % of control (non-treated) cells. Values are the mean and S.D. of the three independent assays.
(§2) Soft-agar colony formation assays—Colony formation assays were carried out in six-well dishes as previously described (Turkson et al., 1999). In brief, each well contained 1.5 ml of 1% agarose in DMEM as the bottom layer, and 1.5 ml of 0.5% agarose in DMEM containing 4000 or 6000 NIH3T3/v-Src or NIH3T3/v-Ras fibroblasts, respectively, as the top layer. Treatment with PLATINUM-401 was initiated 1 day after seeding cells by adding 75-100 μl of medium with or without compound, and repeated every three days, until large colonies were evident. Colonies were quantified by staining with 20 μl of 1 mg/ml iodonitrotetrazolium violet, incubating at 37° C. overnight and counting the next day.
(§3) PLATINUM-401 was next evaluated for effects on Stat3-mediated v-Src transformation (Turkson et al., 1998; Bromberg et al., 1998; Turkson et al., 1999).

[2] = test system: NIH3T3/v-Src fibroblasts; test: Soft-agar colony formation assay; assay type: cell-based, mouse; settings: treated every 2-3 days until large colonies evident
Protocol: as §1, §2, §3

[3] = test system: malignant cells harboring constitutively-active Stat3; test: Ki67 proliferation index by immunohistochemistry; assay type: cell-based
Protocol: FIGS. 5A and 5B. Evaluation for effects of PLATINUM-401 on cellular constitutive Stat3 activation and cell proliferation. Normal or malignant cells were treated with or without PLATINUM-401 and nuclear extracts were prepared for Stat3 DNA-binding activity assay with hSIE probe, or cells were processed for nuclear Ki67 immunohistochemistry. (FIG. 5A) EMSA analysis of Stat3 DNA-binding activity; (FIG. 5B) Graphical representations of quantified nuclear staining of Ki-67 proliferation index. Stat3:Stat3-DNA complexes in gels are labeled. The Ki-67 proliferation indexes were calculated as the percent positive tumor cells relative to the total number of cells. […]
Immunohistochemistry—The indirect peroxidase-antiperoxidase test was performed on cytospins prepared from cell lines (control and treated). […] The presence of Ki-67 nuclear staining was calculated as percent positive tumor cells in relation to the total number of cells.
(§4) The inventors further examined the biological effects of PLATINUM-401 and determined whether any changes might correlate with the inhibition of constitutively-active Stat3. […]
Changes in cell proliferation induced by treatment with PLATINUM-401 were assayed in terms of Ki67 proliferation index by immunohistochemistry. The presence of Ki-67 nuclear staining was calculated as the percent positive tumor cells in relation to the total number of cells.

[4] = test system: malignant cells harboring constitutively-active Stat3; test: Constitutive Stat3 activation in treated malignant cells (EMSA of nuclear extracts); assay type: cell-based; settings: 24 h treatment
Protocol: FIGS. 5A and 5B. Evaluation for effects of PLATINUM-401 on cellular constitutive Stat3 activation and cell proliferation. Normal or malignant cells were treated with or without PLATINUM-401 and nuclear extracts were prepared for Stat3 DNA-binding activity assay with hSIE probe, or cells were processed for nuclear Ki67 immunohistochemistry. (FIG. 5A) EMSA analysis of Stat3 DNA-binding activity; (FIG. 5B) Graphical representations of quantified nuclear staining of Ki-67 proliferation index. Stat3:Stat3-DNA complexes in gels are labeled. The Ki-67 proliferation indexes were calculated as the percent positive tumor cells relative to the total number of cells. Ki67 values are representative of 3 independent assays.
Nuclear extract preparation and gel shift assays—Nuclear extract preparation from NIH3T3 stimulated by rhIL-6, NIH3T3/hEGFR stimulated by rhEGF, v-Src-transformed fibroblasts (NIH3T3/v-Src) or tumor cell lines and electrophoretic mobility shift assay were carried out as previously described (Turkson et al., 1998; Garcia et al., 1997; Yu et al., 1995). […]
as §4

[5] = test system: inactive Stat5 monomer; test: Inactive STAT monomer added to activated Stat3 before EMSA (titration of compound); assay type: binding
[6] = molecular target: T1, inactive Stat3 monomer (Homo sapiens, UniProt P40763); test: as above; assay type: binding; settings: monomer added to activated Stat3, pre-incubated with compound 30 min
T1 construct: made in house; host or cells: Sf-9 insect cells infected with recombinant baculovirus
From the text: The interaction of PLATINUM-401 with Stat3 protein is independent of the activation status of the protein.

T1 sequence (P40763 whole entry): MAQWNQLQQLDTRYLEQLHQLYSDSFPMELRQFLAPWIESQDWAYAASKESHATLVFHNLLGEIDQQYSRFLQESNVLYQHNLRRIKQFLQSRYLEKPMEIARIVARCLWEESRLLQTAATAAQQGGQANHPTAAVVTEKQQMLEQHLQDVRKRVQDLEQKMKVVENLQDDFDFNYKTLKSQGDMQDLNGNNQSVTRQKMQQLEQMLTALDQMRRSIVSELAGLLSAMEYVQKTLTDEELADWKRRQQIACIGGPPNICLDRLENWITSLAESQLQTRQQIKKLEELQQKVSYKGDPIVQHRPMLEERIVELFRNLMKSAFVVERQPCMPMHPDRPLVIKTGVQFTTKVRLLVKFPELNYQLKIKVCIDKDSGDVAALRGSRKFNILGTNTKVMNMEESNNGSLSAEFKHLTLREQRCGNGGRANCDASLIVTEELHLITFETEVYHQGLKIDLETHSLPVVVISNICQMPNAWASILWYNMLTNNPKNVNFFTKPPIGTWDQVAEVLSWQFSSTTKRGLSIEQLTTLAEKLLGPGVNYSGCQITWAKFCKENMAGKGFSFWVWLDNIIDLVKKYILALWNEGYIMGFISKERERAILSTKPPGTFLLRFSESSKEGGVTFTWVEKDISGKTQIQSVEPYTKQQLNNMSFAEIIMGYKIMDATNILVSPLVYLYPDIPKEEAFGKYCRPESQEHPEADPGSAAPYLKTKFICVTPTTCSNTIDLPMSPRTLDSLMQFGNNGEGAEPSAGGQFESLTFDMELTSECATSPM

## CC(O)CN1CCN(CC(C)O)CC1 (stereo not drawn) [PLATINUM-401]
[1]
  growth in soft agar: only partially inhibits growth
[2]
  growth in soft agar: strongly suppresses growth
[3]
  Ki67 nuclear staining: significant decreases
[4]
  constitutive activation of Stat3: significant inhibition
[5]
  influence of inactive Stat5 monomer on compound's effect on Stat3 DNA-binding activity: failed to significantly influence
[6]
  interaction with inactive Stat3 monomer: interacts
